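96-well plates; 48 h exposure; 5 concentrations. Endpoints by linear interpolation between flanking doses. Not reached: highest tested concentration assigned. Definition used: TGI = concentration required for complete inhibition of growth.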
What was measured:
Assay in all cases: DTP human tumour cell line panel, 48 h
MDA-MB-231 breast = test system: MDA-MB-231 breast
MALME-3M melanoma = test system: MALME-3M melanoma
OVCAR-4 ovarian = test system: OVCAR-4 ovarian
UACC-62 melanoma = test system: UACC-62 melanoma
ACHN renal = test system: ACHN renal
NCI-H522 lung = test system: NCI-H522 lung
IGROV1 ovarian = test system: IGROV1 ovarian
SK-MEL-5 melanoma = test system: SK-MEL-5 melanoma

| SMILES | TGI (MDA-MB-231 breast) [µM] | TGI (MALME-3M melanoma) [µM] | TGI (OVCAR-4 ovarian) [µM] | TGI (UACC-62 melanoma) [µM] | TGI (ACHN renal) [µM] | TGI (NCI-H522 lung) [µM] | TGI (IGROV1 ovarian) [µM] | TGI (SK-MEL-5 melanoma) [µM] |
| --- | --- | --- | --- | --- | --- | --- | --- | --- |
| C1CNOCCCONCCCNOCCCONC1 | 79.6 | 99.2 | > 100 | > 100 | > 100 | > 100 | > 100 | > 100 |
| CC1(C)C2CCC3CC(CCC#N)CCC3C21C#N (configuration not stated) | > 100 | > 100 | > 100 | > 100 | > 100 | > 100 | > 100 | > 100 |
| CSc1ncnc2c1cnn2Cc1cnnn1COCC(O)CO (configuration not stated) | > 100 |  | > 100 | > 100 | > 100 | 29 | > 100 | > 100 |
| CCOC(=O)C(NC(=O)OCc1ccccc1)C(=O)O (configuration not stated) | > 100 | > 100 | > 100 | > 100 | > 100 | > 100 | > 100 | > 100 |
| COc1ccc(C2c3cc4c(cc3OC(NNc3ccccc3)C2C)OCO4)cc1 (configuration not stated) | > 100 | 52.9 |  | 59.5 | 49.5 | 94.6 | > 100 | 99.4 |
| CCOC1OC(CO)C(O)CC1n1ccc(=O)[nH]c1=O (configuration not stated) | > 100 | > 100 | > 100 | > 100 | > 100 | > 100 | > 100 | > 100 |
| O=C(CNc1ccccn1)Nn1cnc2ccc(S(=O)(=O)Nc3ccccn3)cc2c1=O | > 100 | > 100 | > 100 | > 100 | > 100 | > 100 | > 100 |  |
| COC(=O)c1ccc2c(c1)CC1(C2)Cc2cc3c(cc2C1)CCC3 | > 100 | > 100 | > 100 |  | > 100 | > 100 | > 100 | > 100 |
| CCS(=O)C(=O)N(O)c1ccc(Cl)cc1 (configuration not stated) | > 100 |  | > 100 | 22.9 | 55 |  |  | 74.1 |
| CCOC(=O)N/N=C(/N)c1cccc(Br)c1 | > 100 | > 100 | > 100 | > 100 | > 100 | > 100 | > 100 | > 100 |
| CC1=NN=C(C)C1N=Nc1ccc2nc(C)[nH]c2c1 | > 88.2 | > 50.5 | > 100 | > 79.8 | > 76.8 | > 100 | 29.7 | > 63.8 |
| CC(C)OC(=O)c1ccc(NCc2cc(O)ccc2O)cc1 | 9.59 | 5.2 | 18.7 | 30.9 | 13.5 | 0.638 | 15 | 10.8 |
| Clc1ccc(Cl)c(N=Nc2cc3c4c(c2)CCN4CCC3)c1 | > 10 | > 10 | > 10 | > 10 | > 10 | > 10 | > 10 | > 10 |

Reference: PubChem BioAssay (NCI)
